The target of this assay is T1, human S1P1 receptors (Homo sapiens, UniProt P21453).
T1 construct: host or cells: HEK293
The experiment in a line: S1P1R antagonist assay (fluorescent membrane potential dye, cAMP readout). The note with it: HEK293 cells expressing human S1P1 receptors and CNG channel; 500 nM NECA; S1P1R agonist 10 nM; 90 minutes; read-out: EC50 or IC50 value. The assay is classed as cell-based.

Broadly, the IC50 is the concentration needed to halve the response being measured.

T1 sequence (P21453 whole entry): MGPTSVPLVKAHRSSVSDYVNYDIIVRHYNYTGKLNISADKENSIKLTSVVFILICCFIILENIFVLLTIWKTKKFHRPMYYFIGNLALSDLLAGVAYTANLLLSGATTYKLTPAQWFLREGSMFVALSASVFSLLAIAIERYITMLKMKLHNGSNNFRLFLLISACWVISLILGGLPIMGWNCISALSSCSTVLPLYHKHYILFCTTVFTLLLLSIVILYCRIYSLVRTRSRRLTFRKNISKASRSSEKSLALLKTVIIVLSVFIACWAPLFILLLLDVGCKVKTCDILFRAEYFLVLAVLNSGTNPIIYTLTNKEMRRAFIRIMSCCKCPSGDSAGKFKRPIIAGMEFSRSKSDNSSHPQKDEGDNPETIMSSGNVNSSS

Regarding `O=C(Cc1cccc2ccccc12)NC(COCc1ccccc1)C(=O)Nc1ccc(Oc2ccccc2)cc1` (centres unmarked) [Compound 375, N-(2-oxo-1-{[(phenylmethyl)oxy]methyl}-2-{[4-(phenyloxy)phenyl]amino}ethyl)-2-(naphthalen-1-yl)acetamide], the IC50 was > 1000 nM. Turning to `O=C(Cc1cnc[nH]1)N[C@@H](COCc1ccccc1)C(=O)Nc1ccc(Oc2ccccc2)cc1` [Compound 143, (S)-2-(2-(1H-imidazol-5-yl)acetamido)-3-benzyloxy-N-(4-phenoxyphenyl)propanamide], the IC50 was ≤ 300 nM. Next, `O=C(Nc1ccc(Oc2ccc(F)cc2)cc1)[C@@H]1C[C@H](NCc2ccccc2)CN1C(=O)Cn1cncn1` [Compound 80, (2S,4S)-1-(2-(1H-1,2,4-triazol-1-yl)acetyl)-4-(benzylamino)-N-(4-(4-fluorophenoxy)phenyl)pyrrolidine-2-carboxamide]: 300 to 1000 nM; `CCCC(C)C(=O)NC(COCc1ccccc1)C(=O)Nc1ccc(Oc2ccccc2)cc1` (centres unmarked) [Compound 286, 2-methyl-N-(2-oxo-1-{[(phenylmethyl)oxy]methyl}-2-{[4-(phenyloxy)phenyl]amino}ethyl)pentanamide]: > 1000 nM. In the case of `CC(=O)CCCC(=O)NC(COCc1ccccc1)C(=O)Nc1ccc(Oc2ccccc2)cc1` (centres unmarked) [Compound 310, 5-oxo-N-(2-oxo-1-{[(phenylmethyl)oxy]methyl}-2-{[4-(phenyloxy)phenyl]amino}ethyl)hexanamide], the IC50 is > 1000 nM. Next, `COc1ccc(OC)c(CC(=O)NC(COCc2ccccc2)C(=O)Nc2ccc(Oc3ccccc3)cc2)c1` (centres unmarked) [Compound 280, N-(2-oxo-1-{[(phenylmethyl)oxy]methyl}-2-{[4-(phenyloxy)phenyl]amino}ethyl)-2,5-dimethoxyphenylacetamide]: > 1000 nM; `O=C(NC(COCc1ccccc1)C(=O)Nc1ccc(Oc2ccccc2)cc1)C1CC1` (centres unmarked) [Compound 277, N-(2-oxo-1-{[(phenylmethyl)oxy]methyl}-2-{[4-(phenyloxy)phenyl]amino}ethyl)cyclopropylamide]: ≤ 300 nM. The same measure for `O=C(CCc1c[nH]c2ccccc12)NC(COCc1ccccc1)C(=O)Nc1ccc(Oc2ccccc2)cc1` (centres unmarked) [Compound 383, N-(2-oxo-1-{[(phenylmethyl)oxy]methyl}-2-{[4-(phenyloxy)phenyl]amino}ethyl)-3-(1H-indol-3-yl)propanamide]: > 1000 nM.

With `COCC(=O)NC(COCc1ccccc1)C(=O)Nc1ccc(Oc2ccccc2)cc1` (centres unmarked) [Compound 284, N-(2-oxo-1-{[(phenylmethyl)oxy]methyl}-2-{[4-(phenyloxy)phenyl]amino}ethyl)-2-methoxyacetamide], the IC50 is > 1000 nM. Next, `O=C(Nc1ccc(Oc2ccc(F)cc2)cc1)[C@@H]1C[C@@H](Cc2ccc(F)cc2Cl)CN1C(=O)Cn1nccn1` [Compound 5, (2S,4R)-1-(2-(2H-1,2,3-triazol-2-yl)acetyl)-4-(2-chloro-4-fluorobenzyl)-N-(4-(4-fluorophenoxy)phenyl)pyrrolidine-2-carboxamide]: ≤ 300 nM. The same measure for `COC(=O)c1ccc(C(=O)NC(COCc2ccccc2)C(=O)Nc2ccc(Oc3ccccc3)cc2)cc1` (centres unmarked) [Compound 397, methyl 4-{[(2-oxo-1-{[(phenylmethyl)oxy]methyl}-2-{[4-(phenyloxy)phenyl]amino}ethyl)amino]carbonyl}benzoate]: 300 to 1000 nM. The same measure for `CC(=O)CCC(=O)N1C[C@H](Cc2ccccc2)C[C@H]1C(=O)Nc1ccc(Oc2ccc(F)cc2)cc1` [Compound 123, (2S,4R)-4-benzyl-N-(4-(4-fluorophenoxy)phenyl)-1-(4-oxopentanoyl)pyrrolidine-2-carboxamide]: ≤ 300 nM.

Turning to `O=C(Cc1c[nH]cn1)N[C@@H](COCc1ccccc1)C(=O)Nc1cccc(Oc2ccccc2)c1` [Compound 243, (S)-2-(2-(1H-imidazol-4-yl)acetamido)-3-(benzyloxy)-N-(3-phenoxyphenyl)propanamide], the IC50 is ≤ 300 nM. The same measure for `O=C(CN1CCCCCC1)N[C@@H](COCc1ccccc1)C(=O)Nc1ccc(Oc2ccc(F)cc2)cc1` [Compound 128, (S)-2-(2-(azepan-1-yl)acetamido)-3-(benzyloxy)-N-(4-(4-fluorophenoxy)phenyl)propanamide]: > 1000 nM; for `COc1ccc(CCC(=O)N[C@@H](COCc2ccccc2)C(=O)Nc2ccc(Oc3ccc(F)cc3)cc2)cc1Cl` [Compound 81, (S)-3-(benzyloxy)-2-(3-(3-chloro-4-methoxyphenyl)propanamido)-N-(4-(4-fluorophenoxy)phenyl)propanamide]: > 1000 nM; for `O=C(Nc1ccc(Oc2ccc(F)cc2)cc1)[C@@H]1C[C@@H](OCc2ccccc2)CN1C(=O)Cn1cncn1` [Compound 252, (2S,4R)-1-(2-(1H-1,2,4-triazol-1-yl)acetyl)-4-(benzyloxy)-N-(4-(4-fluorophenoxy)phenyl)pyrrolidine-2-carboxamide]: ≤ 300 nM. Consider `O=C(CCc1cccnc1)NC(COCc1ccccc1)C(=O)Nc1ccc(Oc2ccccc2)cc1` (centres unmarked) [Compound 369, N-(2-oxo-1-{[(phenylmethyl)oxy]methyl}-2-{[4-(phenyloxy)phenyl]amino}ethyl)-3-(pyridin-3-yl)propanamide], for which the IC50 is > 1000 nM. The same measure for `CC(C(=O)NC(COCc1ccccc1)C(=O)Nc1ccc(Oc2ccccc2)cc1)c1ccccc1` (centres unmarked) [Compound 359, N-(2-oxo-1-{[(phenylmethyl)oxy]methyl}-2-{[4-(phenyloxy)phenyl]amino}ethyl)-2-phenylpropanamide]: > 1000 nM; for `CC(C(=O)N[C@@H](COCc1ccccc1)C(=O)Nc1ccc(Oc2ccc(F)cc2)cc1)c1c[nH]cn1` (stereo partly drawn) [Compound 167, (2S)-2-(2-(1H-imidazol-4-yl)propanamido)-3-(benzyloxy)-N-(4-(4-fluorophenoxy)phenyl)propanamide]: ≤ 300 nM. Next, `O=C(Nc1ccc(Oc2ccc(F)cc2)cc1)[C@@H]1C[C@@H](CNCc2ccccc2)CN1C(=O)Cn1cncn1` [Compound 262, (2S,4S)-1-(2-(1H-1,2,4-triazol-1-yl)acetyl)-4-((benzylamino)methyl)-N-(4-(4-fluorophenoxy)phenyl)pyrrolidine-2-carboxamide]: 300 to 1000 nM. On to `O=C(Nc1ccc(Oc2ccc(F)cc2)cc1)[C@@H]1C[C@@H](Cc2ccccc2)CN1C(=O)Cc1c(F)cccc1F` [Compound 95, (2S,4R)-4-benzyl-1-(2-(2,6-difluorophenyl)acetyl)-N-(4-(4-fluorophenoxy)phenyl)pyrrolidine-2-carboxamide], for which the IC50 was ≤ 300 nM. The same measure for `Cc1n[nH]c(C)c1CC(=O)N[C@@H](COCc1ccccc1)C(=O)Nc1ccc(Oc2ccc(F)cc2)cc1` [Compound 152, (S)-3-(benzyloxy)-2-(2-(3,5-dimethyl-1H-pyrazol-4-yl)acetamido)-N-(4-(4-fluorophenoxy)phenyl)propanamide]: ≤ 300 nM. Next, `O=C(Cc1c[nH]cn1)N[C@@H](COCc1ccccc1)C(=O)Nc1ccc(Oc2ccc(F)cc2)cc1` [Compound 131, (S)-2-(2-(1H-imidazol-5-yl)acetamido)-3-benzyloxy-N-(4-(4-fluorophenoxy)phenyl)propanamide]: ≤ 300 nM. The same measure for `O=C(COc1ccc(Cl)c(Cl)c1)NC(COCc1ccccc1)C(=O)Nc1ccc(Oc2ccccc2)cc1` (centres unmarked) [Compound 370, N-(2-oxo-1-{[(phenylmethyl)oxy]methyl}-2-{[4-(phenyloxy)phenyl]amino}ethyl)-2-(3,4-dichlorophenoxy)acetamide]: 300 to 1000 nM; for `O=C(Nc1ccc(Oc2ccc(F)cc2)cc1)[C@@H]1C[C@@H](Cc2ccccc2)CN1C(=O)CN1CCc2ccccc2C1` [Compound 82, (2S,4R)-4-benzyl-1-(2-(3,4-dihydroisoquinolin-2(1H)-yl)acetyl)-N-(4-(4-fluorophenoxy)phenyl)pyrrolidine-2-carboxamide]: ≤ 300 nM; for `CC1CCCN1CC(=O)N[C@@H](COCc1ccccc1)C(=O)Nc1ccc(Oc2ccc(F)cc2)cc1` (stereo partly drawn) [Compound 63, (2S)-3-(benzyloxy)-N-(4-(4-fluorophenoxy)phenyl)-2-(2-(2-methylpyrrolidin-1-yl)acetamido)propanamide]: > 1000 nM. For `CC(=O)N[C@@H](COCc1ccccc1)c1nc2cc(Oc3ccc(F)cc3)ccc2[nH]1` [Compound 60, (R)—N-(2-(benzyloxy)-1-(5-(4-fluorophenoxy)-1H-benzo[d]imidazol-2-yl)ethyl)acetamide], the IC50 is > 1000 nM. `CN(C)C(=O)CCC(=O)N1C[C@H](Cc2ccccc2)C[C@H]1C(=O)Nc1ccc(Oc2ccc(F)cc2)cc1` [Compound 89, (2S,4R)-4-benzyl-1-(4-(dimethylamino)-4-oxobutanoyl)-N-(4-(4-fluorophenoxy)phenyl)pyrrolidine-2-carboxamide]: the half-maximal inhibitory concentration (IC50) is ≤ 300 nM.

With `O=C(Cn1cncn1)N[C@@H](COCc1ccccc1)C(=O)Nc1ccc(Oc2ccc(F)cc2)cc1` [Compound 149, (S)-2-(2-(1H-1,2,4-triazol-1-yl)acetamido)-3-benzyloxy-N-(4-(4-fluorophenoxy)phenyl)propanamide], the IC50 is ≤ 300 nM.

For `Cc1cc(Br)ccc1C(=O)NC(COCc1ccccc1)C(=O)Nc1ccc(Oc2ccccc2)cc1` (centres unmarked) [Compound 311, 4-bromo-2-methyl-N-(2-oxo-1-{[(phenylmethyl)oxy]methyl}-2-{[4-(phenyloxy)phenyl]amino}ethyl)benzamide], the IC50 is > 1000 nM.

On to `CCOCCC(=O)NC(COCc1ccccc1)C(=O)Nc1ccc(Oc2ccccc2)cc1` (centres unmarked) [Compound 376, N-(2-oxo-1-{[(phenylmethyl)oxy]methyl}-2-{[4-(phenyloxy)phenyl]amino}ethyl)-3-ethoxypropanamide], for which the IC50 was > 1000 nM. Next, `CC(=O)Oc1ccc(C(=O)NC(COCc2ccccc2)C(=O)Nc2ccc(Oc3ccccc3)cc2)cc1` (centres unmarked) [Compound 17, 4-(3-(benzyloxy)-1-oxo-1-(4-phenoxyphenylamino)propan-2-ylcarbamoyl)phenyl acetate]: > 1000 nM.

For the origin of these results see patent publication US8791102B2, “Acetanilide sphingosine-1-phosphate receptor antagonists” (Exelixis, Inc., priority 2008, dated 2014).
